Counter-ions that a name gives are not always drawn. Like-named read-outs stand apart in the source and are kept apart here.
Columns and labels:
TU-BcX-4IC tumoroids [1] = test: Cell Painting assay adapted for 3D tumoroids, phenotypic distance score and cluster analysis; conditions: 10 μM, phenotypic distance relative to DMSO controls
Procedure: For phenotypic profiling, the tumoroids were treated with a single 10 μM concentration of compound, using the methods described above. Notable changes in the staining protocol included increased times for dye incubation, fixation, and permeabilization. […] Images were acquired with Z-stacks using 20× magnification, and the analysis was carried out on projection (maximum) images.
Unlike the previous analysis that included cell count or live-dead evaluation, multiple read-outs may be collected from the whole spheroid to form their phenotypic profile. […] Instead, the spheroid images may also acquired in transmitted light (bright field), and these images may be used to identify the spheroid structures using a deep learning-based image segmentation approach which may improve the analysis. Features extracted from each spheroid may include object morphologies, intensities, and texture measurements for, e.g., the six cell stains and bright field images.
To determine hits from the assay, a phenotypic distance score may be calculated based on the PCA (principal component analysis) components.
This score is a measure of the phenotypic effect of the compounds on the tumoroids relative to the controls. All hits may then be clustered based on their phenotypic profiles using the normalized principal component scores.
To image the organoids labeled with the cell painting dyes, the ImageXpress Confocal HT.ai system, equipped with a laser light source, was used for image acquisition. The confocal mode (pinhole size 60 μm) was used to image organoids with a 20× Plan Apo Lambda, NA 0.75 objective, with z-stacking enabled (5p m step size). The maximum projection image was selected in the acquisition setup.
Images were analyzed using MetaXpress Software (Molecular Devices). […] For the Cell Painting analysis, image analysis was done in the IN Carta image analysis software. To segment the organoids, a deep learning-based model was created based on the TL channel to segment individual organoids. Following segmentation, measurements that include intensity, shape, area, and texture were extracted from all 6 fluorescent channels. In total, 210 analytical features were obtained from each organoid.
The plate was first incubated with MitoTracker DeepRed (500 nM) for 2 hours. The samples were fixed with 4% paraformaldehyde (PFA) in HBSS for 60 minutes. All wash steps were carried out by exchanging half the volume in each well with HBSS to minimize displacement of the organoids from the center of the well.
Measurements from IN Carta were exported as a CSV file and uploaded into StratoMineR (Core Life Analytica), a web-based data analytics platform for hit picking and phenotypic clustering.

TU-BcX-4IC tumoroids [2] = test: Library screening of NCI approved anti-cancer drugs: tumoroid integrity/disintegration by nuclear count in projection images (viability/spheroid disintegration assay); conditions: for Viability HIT?: also hit in viability/spheroid disintegration assay, 10 μM; for minimal effective concentration: Homo sapiens, TU-BcX-4IC, 120 h
Procedure: In addition, positive and negative controls were included in the test plates.
During incubation with compounds, tumoroids were monitored daily using TL imaging. Image analysis allowed characterization of tumoroid size, diameter, compactness, and integrity, as well as optical density (FIG. 2B, FIG. 7). Images of tumoroids were taken prior to compound treatment, and during day 3 and day 5 of compound treatment. For the end point assay, tumoroids were stained with viability and nuclear dyes on day 5 of compound treatment. Cells were stained with a combination of Hoechst, calcein AM, and Ethidium Homodimer III (EthD-III) and analyzed using high content imaging for complex phenotypic analysis; a subset of plates was set aside for additional assays including Cell Painting.
Images of organoids were taken with a 10× objective using Z-stack with a step size of 8 mm. Nuclei, live cells, and dead cells of stained cells were detected using DAPI, FITC, and TexasRed channels respectively. Maximum projection images were created from Z-stacks and analyzed as described in Methods. Multiple read-outs were generated characterizing spheroid area, diameter, intensities, and cell viability. In addition, cells inside each spheroid were counted using a nuclear stain. […] Suspended cells were plated into U-shape 384 well plates using a Biomek i7 automated liquid handler, incubated for 48 hours, and then treated with compounds, stained, and imaged. The protocols for compound additions, media, and staining included gentle media dispensing processes. Consecutively, tumoroids were cultured and monitored by automated imaging. Additionally, use of a collaborative robot enabled moving plates from the incubator to the imaging system, where transmitted light imaging or fluorescent imaging protocols were initiated.
For screening the compound library, maximum projection images may be employed. Spheroid disintegration is visible as an increase of spheroid size, in contrast to nicely shaped, round images of intact spheroids. Tumoroid disintegration can be described by several measurements: for example, increase in organoid area/diameter. Most accurate measurements may be done by counting cells or nuclei inside organoids using maximum projection images. […] Disintegrated tumoroids are made up of cells which are not held together in a tight aggregate but instead are loosely piled up in the well bottom resulting in 1) an increased projected area and 2) an increase in nuclear count in the projection images.
Simple nuclei count analysis in projection images was used as a reliable surrogate marker for organoid integrity/dis-integration.

TU-BcX-4IC tumoroids [3] = test: Secondary follow-up 3D assay, 7-point concentration curves, tumoroid disintegration measurement; format: cell-based, human; conditions: 3D assay, 7-point concentration curves, 5 days, nuclear count in projection images, read-out: EC50
Procedure: 10 compounds, including panobinostat, carfilzomib, and bortezomib were tested across 7 concentrations in the 1-10000 nM range. Spheroids were treated for 5 days with these compounds, then stained as described above (FIG. 4). […] EC50 values (Table 2) were determined using tumoroid disintegration measurement (nuclear count in projection images).
Automated staining of spheroids was performed for one hour. After staining, dye solution was replaced with 1×PBS.

TU-BcX-4IC 3D cultures [4] = test: Imaging read-out, 3D culture; conditions: Homo sapiens, 120 h, read-out: EC50, Imaging 3D
Procedure: (§1) Cell metabolism may be measured by ATP level as another readout for effects of anti-cancer drugs that is related to cytotoxicity. In the present examples, a subset of 12 compounds were used for evaluation of compound effects, using the CellTiter-Glo 3D assay (Promega), which detects ATP levels. Compounds may be tested using 7 point 5× dilutions starting from 100 uM. In the present examples, compound effects on 2D culture and 3D cultures were compared, using imaging and CellTiter-Glo 3D methods. Cultures were set up in parallel, using same cell number (2000). Cultures were allowed to grow for 48 hours, then treated with compounds for 5 days.
(§2) Images were analyzed using MetaXpress Software (Molecular Devices). Count Nuclei or Cell Scoring application modules were used for nuclear count live/dead assessment, or evaluation of cell number positive for specific markers. Output measurements included spheroid width, spheroid area, average intensity for calcein AM or EthD-III, counts of all nuclei, and evaluation of average nuclear size and average intensities. In addition, calcein AM-positive cells were counted, and their area and intensity values were recorded. In addition to cell count, areas and intensities could be determined for live (EthD-III negative) and dead (EthD-III positive) cells.

TU-BcX-4IC 2D culture [5] = test: Imaging read-out, 2D culture; conditions: Homo sapiens, 120 h, read-out: EC50, Imaging 2D
Procedure: as §1, §2

TU-BcX-4IC 3D cultures [6] = test: CellTiter-Glo 3D ATP assay, 3D culture; conditions: 3D culture, 2000 cells, 5 days treatment, CellTiter-Glo 3D
Procedure: (§3) Cell metabolism may be measured by ATP level as another readout for effects of anti-cancer drugs that is related to cytotoxicity. […] Compounds may be tested using 7 point 5× dilutions starting from 100 uM. In the present examples, compound effects on 2D culture and 3D cultures were compared, using imaging and CellTiter-Glo 3D methods. Cultures were set up in parallel, using same cell number (2000). Cultures were allowed to grow for 48 hours, then treated with compounds for 5 days.

TU-BcX-4IC 2D culture [7] = test: CellTiter-Glo 3D ATP assay, 2D culture; conditions: 2D culture, 2000 cells, 5 days treatment, CellTiter-Glo 3D
Procedure: as §3

[8] = read-out: Effective concentration, 3D tumoroids, 5 days treatment, tumoroid integrity by nuclear count, tested at 10 nM to 100 uM

| Structure (SMILES) | Distance Score (TU-BcX-4IC tumoroids [1]) | Viability HIT? (TU-BcX-4IC tumoroids [2]) | minimal effective concentration (TU-BcX-4IC tumoroids [2]; [8]) | also measured |
| --- | --- | --- | --- | --- |
| CN(C)C/C=C/C(=O)Nc1cc2c(Nc3ccc(F)c(Cl)c3)ncnc2cc1O[C@H]1CCOC1 [Afatinib] | 5.047 | – | – | – |
| Cc1nc(NC(=O)N2CCC[C@H]2C(N)=O)sc1-c1ccnc(C(C)(C)C(F)(F)F)c1 [Alpelisib] | 5.834 | yes | – | – |
| Clc1ccc(C(c2ccccc2Cl)C(Cl)Cl)cc1 (stereo not drawn) [Mitotane] | – | – | 0.1 µM | – |
| Cc1cnc(Nc2ccc(OCCN3CCCC3)cc2)nc1Nc1cccc(S(=O)(=O)NC(C)(C)C)c1 [Fedratinib] | – | – | 1 µM | – |
| COc1cc2c(Nc3ccc(Br)cc3F)ncnc2cc1OCC1CCN(C)CC1 [Vandetanib] | 5.185 | – | 1 µM | – |
| COc1cc(N2CCC(N3CCN(C)CC3)CC2)ccc1Nc1ncc(Cl)c(Nc2ccccc2P(C)(C)=O)n1 [Brigatinib] | 5.771 | – | 1 µM | – |
| CCc1nc(C(N)=O)c(Nc2ccc(N3CCC(N4CCN(C)CC4)CC3)c(OC)c2)nc1NC1CCOCC1 [Gilteritinib] | 5.239 | – | 1 µM | – |
| O=C(Nc1cnn2ccc(N3CCC[C@@H]3c3cc(F)ccc3F)nc12)N1CC[C@H](O)C1 [Larotrectinib] | 5.667 | no | – | – |
| O=C(CCCCCCC(=O)Nc1ccccc1)NO [Vorinostat] | 5.079 | no | 1 µM | – |
| C=CC(=O)Nc1cc(Nc2nccc(-c3cn(C)c4ccccc34)n2)c(OC)cc1N(C)CCN(C)C [Osimertinib] | 5.241 | yes | – | – |
| CC[C@]1(O)C[C@H]2CN(CCc3c([nH]c4ccccc34)[C@@](C(=O)OC)(c3cc4c(cc3OC)N(C=O)[C@H]3[C@@](O)(C(=O)OC)[C@H](OC(C)=O)[C@]5(CC)C=CCN6CC[C@]43[C@@H]65)C2)C1 [Vincristine sulfate] | – | – | 0.1 µM | – |
| COC(=O)C[C@](O)(CCCC(C)(C)O)C(=O)O[C@@H]1C(OC)=C[C@]23CCCN2CCc2cc4c(cc2[C@H]13)OCO4 [Omacetaxine] | – | – | – | EC50 (TU-BcX-4IC tumoroids [3]): < 0.1 µM; Effective concentration (TU-BcX-4IC tumoroids [2]; 3D tumoroids, 5 days treatment, tumoroid integrity by nuclear count, tested at 10 nM to 100 uM): 1 µM |
| CCN(CC)CCNC(=O)c1c(C)[nH]c(/C=C2\C(=O)Nc3ccc(F)cc32)c1C [Sunitinib] | – | – | – | EC50 (TU-BcX-4IC tumoroids [3]; Homo sapiens, TU-BcX-4IC, 120 h): 1.7 µM |
| CC1(C)CCC(CN2CCN(c3ccc(C(=O)NS(=O)(=O)c4ccc(NCC5CCOCC5)c([N+](=O)[O-])c4)c(Oc4cnc5[nH]ccc5c4)c3)CC2)=C(c2ccc(Cl)cc2)C1 [Venetoclax] | 4.922 | – | 1 µM | – |
| Oc1ncc(N(CCCl)CCCl)c(O)n1 [Uracil mustard] | – | – | – | minimal effective concentration (TU-BcX-4IC tumoroids [2]; read-out: Effective concentration): 1 µM |
| CCCCC(=O)OCC(=O)[C@]1(O)Cc2c(O)c3c(c(O)c2[C@@H](O[C@H]2C[C@H](NC(=O)C(F)(F)F)[C@H](O)[C@H](C)O2)C1)C(=O)c1c(OC)cccc1C3=O [Valrubicin] | 8.136 | yes | – | – |
| COC(=O)N[C@@H](C)CNc1nccc(-c2cn(C(C)C)nc2-c2cc(Cl)cc(NS(C)(=O)=O)c2F)n1 [Encorafenib] | 5.516 | no | – | – |
| COc1cccc2c1C(=O)c1c(O)c3c(c(O)c1C2=O)C[C@@](O)(C(=O)CO)C[C@@H]3O[C@H]1C[C@H](N)[C@@H](O)[C@H](C)O1 [Epirubicin hydrochloride] | 5.883 | – | 1 µM | – |
| CCN1CCN(Cc2ccc(Nc3ncc(F)c(-c4cc(F)c5nc(C)n(C(C)C)c5c4)n3)nc2)CC1 [Abemaciclib] | 5.819 | – | – | – |
| CO[C@H]1C[C@@H]2CC[C@@H](C)[C@@](O)(O2)C(=O)C(=O)N2CCCC[C@H]2C(=O)O[C@H]([C@H](C)C[C@@H]2CC[C@@H](OC(=O)C(C)(CO)CO)[C@H](OC)C2)CC(=O)[C@H](C)/C=C(\C)[C@@H](O)[C@@H](OC)C(=O)[C@H](C)C[C@H](C)/C=C/C=C/C=C/1C [Temsirolimus] | 5.699 | no | 1 µM | EC50 (TU-BcX-4IC 3D cultures [4]): 8.52 µM; EC50 (TU-BcX-4IC 2D culture [5]): 10 µM; EC50, ATP 3D (TU-BcX-4IC 3D cultures [6]): no fit; EC50, ATP 2D (TU-BcX-4IC 2D culture [7]): no fit |

Source: patent US20240331158A1, “CELL PAINTING AND ANALYSIS IN 3D CELLULAR MODELS” (priority 2023, published 2024)
